± gives the standard deviation of the averaged measurements.
What was measured:
Conditions in all cases: treatment time: 3 days
UT-SCC-106A [1] = assay: maximal % inhibition of viability relative to DMSO; higher = stronger effect
In short: (§1)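 Viability was read with CellTiter-Glo 2.0 luminescence and scaled against vehicle (0.1% DMSO) and cell-killing control wells. The assay used HPV-negative HNSCC cell lines at 500 cells/well in 384-well plates, grown on plastic, on Matrigel or Myogel coatings (500 µg/mL), or embedded in Matrigel or Myogel plus rat collagen I, and treated for 3 days at five 10-fold concentrations. IC50, maximal inhibition and drug sensitivity score were derived from percent-inhibition dose–response curves fitted in the FIMM pipeline.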

UT-SCC-28 [2] = assay: as above
In short: as §1

UT-SCC-14 [3] = assay: as above
In short: as §1

UT-SCC-24A [4] = assay: drug sensitivity score (DSS); higher = more sensitive
Description: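 HNSCC cell lines (500 cells/well, 384-well) were cultured on plastic, on top of (2D) or embedded (3D) in Matrigel or human leiomyoma matrix Myogel (500 ug/mL; Myogel 3D mixed with rat collagen I). Cells were treated for 3 days with 5 ten-fold concentrations of each drug, and viability was read by CellTiter-Glo. Suffixes _1/_2/_3 on drug names are replicates.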

UT-SCC-24A [5] = assay: maximal % inhibition of viability relative to DMSO; higher = stronger effect
Description: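 HNSCC cell lines (500 cells/well, 384-well) were cultured on plastic, on top of (2D) or embedded (3D) in Matrigel or human leiomyoma matrix Myogel (500 ug/mL; Myogel 3D mixed with rat collagen I). Cells were treated for 3 days with 5 ten-fold concentrations of each drug, and viability was read by CellTiter-Glo. Viability was normalised to DMSO (0% inhibition) and 100 uM benzethonium chloride (100% inhibition) controls and fitted with the FIMM DSRT pipeline to give IC50 (nM), maximal % inhibition and the drug sensitivity score (DSS). Suffixes _1/_2/_3 on drug names are replicates.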

UT-SCC-73 = assay: drug sensitivity score (DSS); higher = more sensitive; extreme values may be limits of the assay
In short: as §1

UT-SCC-44 = assay: as above
In short: as §1

UT-SCC-106A [6] = assay: as above
In short: as §1

UT-SCC-42A = assay: as above
In short: as §1

UT-SCC-28 [7] = assay: as above
In short: as §1

UT-SCC-81 = assay: as above
In short: as §1

UT-SCC-8 = assay: as above
In short: as §1

UT-SCC-24B = assay: as above
In short: as §1

UT-SCC-14 [8] = assay: as above
In short: as §1

UT-SCC-40 = assay: as above
In short: as §1

UT-SCC-42B = assay: as above
In short: as §1

[9] = culture condition: embedded in Matrigel
[10] = culture condition: embedded in Myogel + collagen I
[11] = culture condition: on top of Matrigel
[12] = culture condition: on top of Myogel
[13] = culture condition: plastic 2D (no matrix)

## CO[C@H]1C[C@@H]2CC[C@@H](C)[C@@](O)(O2)C(=O)C(=O)N2CCCC[C@H]2C(=O)O[C@H]([C@H](C)C[C@@H]2CC[C@@H](OC(=O)C(C)(CO)CO)[C@H](OC)C2)CC(=O)[C@H](C)/C=C(\C)[C@@H](O)[C@@H](OC)C(=O)[C@H](C)C[C@H](C)/C=C/C=C/C=C/1C [Temsirolimus]
UT-SCC-106A [1]; [9]
  maximal % inhibition of viability: 36.2 ± 2.6%
UT-SCC-106A [1]; [10]
  maximal % inhibition of viability: 33.9 ± 5.5%
UT-SCC-106A [1]; [11]
  maximal % inhibition of viability: 36.4 ± 0.4%
UT-SCC-106A [1]; [12]
  maximal % inhibition of viability: 25.1 ± 1.4%
UT-SCC-106A [1]; [13]
  maximal % inhibition of viability: 39.8 ± 5%
UT-SCC-28 [2]; [9]
  maximal % inhibition of viability: 29.7 ± 9.9%
UT-SCC-28 [2]; [10]
  maximal % inhibition of viability: 37.2 ± 7.1%
UT-SCC-28 [2]; [11]
  maximal % inhibition of viability: 38 ± 2.7%
UT-SCC-28 [2]; [13]
  maximal % inhibition of viability: 35.3 ± 4.3%
UT-SCC-14 [3]; [9]
  maximal % inhibition of viability: 53.5 ± 4.4%
UT-SCC-14 [3]; [10]
  maximal % inhibition of viability: 52.5 ± 4.8%
UT-SCC-14 [3]; [11]
  maximal % inhibition of viability: 50.5 ± 2.5%
UT-SCC-14 [3]; [12]
  maximal % inhibition of viability: 45.4 ± 4.4%
UT-SCC-14 [3]; [13]
  maximal % inhibition of viability: 46.3 ± 8.9%
UT-SCC-24A [4]; [9]
  drug sensitivity score: 10.2 ± 11 DSS
UT-SCC-24A [4]; [10]
  drug sensitivity score: 9.67 ± 2.8 DSS
UT-SCC-24A [4]; [11]
  drug sensitivity score: 4.9 ± 1.3 DSS
UT-SCC-24A [4]; [12]
  drug sensitivity score: 5.03 ± 1.2 DSS
UT-SCC-24A [4]; [13]
  drug sensitivity score: 6.07 ± 0.67 DSS
UT-SCC-24A [5]; [9]
  maximal % inhibition of viability: 46.8 ± 44%
UT-SCC-24A [5]; [10]
  maximal % inhibition of viability: 40.8 ± 6.7%
UT-SCC-24A [5]; [11]
  maximal % inhibition of viability: 33.3 ± 6.1%
UT-SCC-24A [5]; [12]
  maximal % inhibition of viability: 28.7 ± 1.9%
UT-SCC-24A [5]; [13]
  maximal % inhibition of viability: 33.8 ± 2.7%
UT-SCC-73; [9]
  drug sensitivity score: 9.13 ± 6.3 DSS
UT-SCC-73; [10]
  drug sensitivity score: 8.27 ± 5.5 DSS
UT-SCC-73; [11]
  drug sensitivity score: 7.23 ± 0.64 DSS
UT-SCC-73; [12]
  drug sensitivity score: 7.1 ± 2.2 DSS
UT-SCC-73; [13]
  drug sensitivity score: 4.53 ± 1.6 DSS
UT-SCC-44; [9]
  drug sensitivity score: 5.33 ± 4 DSS
UT-SCC-44; [10]
  drug sensitivity score: 9.3 ± 3.5 DSS
UT-SCC-44; [11]
  drug sensitivity score: 9.13 ± 1 DSS
UT-SCC-44; [12]
  drug sensitivity score: 8.97 ± 1.4 DSS
UT-SCC-44; [13]
  drug sensitivity score: 7.9 ± 0.78 DSS
UT-SCC-106A [6]; [9]
  drug sensitivity score: 6.03 ± 1.3 DSS
UT-SCC-106A [6]; [10]
  drug sensitivity score: 5.33 ± 1.3 DSS
UT-SCC-106A [6]; [11]
  drug sensitivity score: 5.93 ± 1 DSS
UT-SCC-106A [6]; [12]
  drug sensitivity score: 3.33 ± 0.21 DSS
UT-SCC-106A [6]; [13]
  drug sensitivity score: 7.6 ± 0.85 DSS
UT-SCC-42A; [9]
  drug sensitivity score: 4.67 ± 1.3 DSS
UT-SCC-42A; [10]
  drug sensitivity score: 5.23 ± 3.3 DSS
UT-SCC-42A; [11]
  drug sensitivity score: 5.87 ± 1.4 DSS
UT-SCC-42A; [12]
  drug sensitivity score: 6.4 ± 0.35 DSS
UT-SCC-42A; [13]
  drug sensitivity score: 4.5 ± 1.1 DSS
UT-SCC-28 [7]; [9]
  drug sensitivity score: 4.9 ± 2.9 DSS
UT-SCC-28 [7]; [10]
  drug sensitivity score: 4.77 ± 3.2 DSS
UT-SCC-28 [7]; [11]
  drug sensitivity score: 8.37 ± 2.5 DSS
UT-SCC-28 [7]; [13]
  drug sensitivity score: 8.8 ± 1.3 DSS
UT-SCC-81; [9]
  drug sensitivity score: 14.9 ± 3.1 DSS
UT-SCC-81; [10]
  drug sensitivity score: 15 ± 3.8 DSS
UT-SCC-81; [11]
  drug sensitivity score: 10.2 ± 0.74 DSS
UT-SCC-81; [12]
  drug sensitivity score: 14.7 ± 1.5 DSS
UT-SCC-81; [13]
  drug sensitivity score: 12.1 ± 2.3 DSS
UT-SCC-8; [9]
  drug sensitivity score: 9.4 ± 0.36 DSS
UT-SCC-8; [10]
  drug sensitivity score: 4.53 ± 0.57 DSS
UT-SCC-8; [11]
  drug sensitivity score: 9.17 ± 1.2 DSS
UT-SCC-8; [12]
  drug sensitivity score: 11.4 ± 1.6 DSS
UT-SCC-8; [13]
  drug sensitivity score: 10.4 ± 1.1 DSS
UT-SCC-24B; [9]
  drug sensitivity score: 5.07 ± 3.1 DSS
UT-SCC-24B; [10]
  drug sensitivity score: 11 ± 2.6 DSS
UT-SCC-24B; [11]
  drug sensitivity score: 4.3 ± 1.7 DSS
UT-SCC-24B; [12]
  drug sensitivity score: 6.37 ± 1.4 DSS
UT-SCC-24B; [13]
  drug sensitivity score: 4.77 ± 1.2 DSS
UT-SCC-14 [8]; [9]
  drug sensitivity score: 15.4 ± 0.23 DSS
UT-SCC-14 [8]; [10]
  drug sensitivity score: 14 ± 1.9 DSS
UT-SCC-14 [8]; [11]
  drug sensitivity score: 13.3 ± 0.66 DSS
UT-SCC-14 [8]; [12]
  drug sensitivity score: 13.7 ± 1.3 DSS
UT-SCC-14 [8]; [13]
  drug sensitivity score: 13.1 ± 2.3 DSS
UT-SCC-40; [9]
  drug sensitivity score: 6.03 ± 2 DSS
UT-SCC-40; [10]
  drug sensitivity score: 6.8 ± 2.6 DSS
UT-SCC-40; [11]
  drug sensitivity score: 4.17 ± 1.6 DSS
UT-SCC-40; [12]
  drug sensitivity score: 4.53 ± 1.1 DSS
UT-SCC-40; [13]
  drug sensitivity score: 3.6 ± 1 DSS
UT-SCC-42B; [9]
  drug sensitivity score: 4 ± 6 DSS
UT-SCC-42B; [11]
  drug sensitivity score: 0 DSS
UT-SCC-42B; [12]
  drug sensitivity score: 0 DSS
UT-SCC-42B; [13]
  drug sensitivity score: 0.933 ± 0.84 DSS

Source: the supplement of paper PMC7017272
